The subject of the experiment is C. tropicalis ATCC 750. Briefly: Checkerboard MIC assay, FICI. It is filed as cell-based, Candida tropicalis. The note with it: combination with Compound 1; C. tropicalis ATCC 750. The source says: The following assay was used to determine the minimum inhibitory concentration (MIC) and fractional inhibitory concentration index (FICI) for combinations of an antifungal agent and a glycopeptide antibacterial agent. This assay and methods for calculating FICI are well known in the art. See, for example, Eliopoulos, E. G. and R. Moellering, Jr. “Antimicrobial Combinations” in Antibiotics in Laboratory Medicine, edited by V. Lorian, 4th Ed., Williams & Wilkins, Baltimore, MD, pp. 330-396 (1996); […] et al., Antimicrobial Agents and Chemotherapy 47(4):1416-1418 (2003); or […] et al., Antimicrobial Agents and Chemotherapy 46(10):3323-3326 (2002). Procedures, protocols, supplies and equipment used in this assay follow the recommendations approved and published by the National Committee for Clinical Laboratory Standards (NCCLS), Wayne, Pa. as described in NCCLS 2003, “Reference Method for Broth Dilution Antimicrobial Susceptibility Tests for Bacteria that Grow Aerobically; Approved Standard” (NCCLS document M7-A6); NCCLS 2002, “Reference Method for Broth Dilution Antifungal Susceptibility Tests of Filamentous Fungi that Grow Aerobically; Approved Standard” (NCCLS document M38-A); and NCCLS 2002 “Reference Method for Broth Dilution Antifungal Susceptibility Tests of Yeast; Approved Standards-2nd Edition” (NCCLS document M27-A2). Using a checkerboard method, a 2-fold dilution 100× final concentration master plate was prepared using a 96-well U-shape microtiter plate and an appropriate solvent. In the “checkerboard” method, a microtiter plate is divided into “columns” in which each well in the column contains the same amount of an antifungal agent (Compound A) being diluted along the x-axis, and “rows” in which each well in the row contains the same amount of a glycopeptide antibacterial agent (Compound B) being diluted on the y-axis. Also included is a row (or column) for Compound A or B alone. The dilutions used in the checkerboard are exponential (by powers of two). The result is that each well in the microtiter plate contains a unique concentration of the two compounds being tested. […] After mixing, 100 μL of 2× drug combinations were distributed into 96-well microtiter plates. […] Compound A was not added to Column 12, so Column 12 contained only Compound B. Compound B was diluted from row A starting at 6,400 μg/mL down to row G (100 μg/mL). Wells in Row A contained a final concentration of 64 μg/mL of Compound B; Row B contained a final concentration of 32 μg/mL of Compound B; Row C contained a final concentration of 16 μg/mL of Compound B; etc. Compound B was not added to Row H, so Row H only contained Compound A. […] The MIC of the glycopeptide antibacterial agent determined from this experiment was used in FIC calculations. […] RPMI-1640 without sodium bicarbonate media (GIBCO-BRL, Carlsbad, Calif.), an enriched media formulated for mammalian cells, was used according to the NCCLS guidelines for yeast and filamentous fungi susceptibility testing. The medium was buffered with 0.165 M 3-[N-Morpholino]propanesulfonic acid (MOPS) supplemented with 20 g/L glucose and pH adjusted to 7.0 with hydrogen chloride. Sabouraud Dextrose Agar ([…] plates, and Potato Dextrose Agar (PDA) plates were purchased from Hardy Diagnostic (Santa Maria, Calif.). Yeast cultures were started from -80° C. frozen stock streaked on […] incubated at 35° C. under aerobic conditions for 24 h. The […] in the refrigerator for up to 2 weeks and used regularly as a starting culture. About 24 to 48 h before each assay was run, yeasts were streaked on SDA plates for isolated colonies. To prepare the inoculum, from one to four colonies were resuspended in 5 mL of saline, and vortexed for 15 sec. […] For most yeast and mold cultures, the optical density (OD) of the suspension was adjusted to 0.11 in saline to provide 0.4×10^6 CFU/mL. However, for Fusarium moniliforme and Pseudallescheria boydii the OD of the suspension was adjusted to OD=0.17 to provide 0.4×10^6 CFU/mL. […]

The values that follow come from patent US7521418B2, “Use of a polyene macrolide antifungal agent in combination with a glycopeptide antibacterial agent” (Theravance, Inc., priority 2003, dated 2009).

On to `C[C@@H]1[C@H](O)[C@@H](C)/C=C/C=C/C=C/C=C/C=C/C=C/C=C/[C@H](O[C@@H]2O[C@H](C)[C@@H](O)[C@H](N)[C@@H]2O)C[C@@H]2O[C@](O)(C[C@@H](O)C[C@@H](O)[C@H](O)CC[C@@H](O)C[C@@H](O)CC(=O)O[C@H]1C)C[C@H](O)[C@H]2C(=O)O` [Amphotericin B], for which the FICI is listed as 0.27.
Under `C[C@@H]1[C@H](O)[C@@H](C)/C=C/C=C/CC/C=C/C=C/C=C/C=C/C(O[C@H]2O[C@H](C)[C@@H](O)[C@H](N)[C@@H]2O)CC2O[C@](O)(CC(O)C(O)CCC(O)CC(O)CC(O)CC(=O)O[C@H]1C)CC(O)C2C(=O)O` (some centres unmarked) [Nystatin] stands 0.31.
